Measurements: US4027039A (priority 1975, dated 1977)
“And” between values parts separate entries of the source, which are not always exact repeats. Equal values may be shown once. “Also recorded” adds a separate entry of the source. Where a name gives a salt, the structure may show the parent alone. Read-outs that look alike come from different tables or passages of the source.

Key:
viral infections = assay: Antiviral screening in animals, general statements; details: mouse, in vivo
Influenza PR 8 virus = assay: Influenza PR 8 in mice, oral; schedule by table; late read day 6 (Table 37), 7 (33, 36), 8 (32, 35, 47), 10 (38); control fraction 18/20 (Table 32), 19/20 (Table 35), else 100%; type: in vivo, mouse
[1] = test system: Influenza, Ann Arbor virus; assay: Influenza Ann Arbor in mice, subcutaneous; late read day 9 (Table 11), 7 (Tables 12, 14), 5 (Table 13); type: in vivo, mouse
[2] = test system: Influenza, Ann Arbor virus; assay: Influenza Ann Arbor in mice, oral; schedule by table; late read day 5 (Tables 15, 25, 29, 30), 6 (18, 20, 22, 23, 26, 27, 28, 54), 7 (14, 19, 21, 24, 53, 56), 8 (16, 17, 51), 9 (11, 55); type: in vivo, mouse
Vaccinia IHD virus = type: in vivo, mouse
Neurovaccinia virus = assay: Neurovaccinia in mice; details: intraperitoneal
Vaccinia virus = type: in vivo, rabbit; details: rabbit, in vivo
Columbia SK Polio virus = type: in vivo, mouse; details: mouse, in vivo
[3] = test system: Influenza B Massachusetts virus; assay: Influenza B Mass. in mice, oral; late read day 5 (Table 39), 7 (Table 40), 11 (Tables 61, 65); control fraction 16/20 (Table 61), else 100%; type: in vivo, mouse
Procedure: A portion of a commercially available sample of amantadine was recrystallized from isopropanol. The activity of the material against Influenza B Mass. was tested for the sample as obtained, the recrystallized portion, and the mother liquor obtained from recrystallizing the portion.

[4] = test system: Influenza B Maryland virus; assay: Influenza B Maryland in mice, oral; type: in vivo, mouse

NN [hydrazine, hydrate]
activity in words (viral infections): active | No. animals surviving after 6-10 days (Influenza PR 8 virus; total dose 5 μg): 1 | No. animals surviving when 100% (or given fraction) of controls are dead (Influenza PR 8 virus; total dose 5 μg): 0 | Survivors (Influenza PR 8 virus; total dose 5 μg): 0 | No. animals surviving after 6-10 days (Influenza PR 8 virus; total dose 50 μg): 1 | No. animals surviving when 100% (or given fraction) of controls are dead (Influenza PR 8 virus; total dose 50 μg): 0 | Survivors (Influenza PR 8 virus; total dose 50 μg): 0 | No. animals surviving after 6-10 days (Influenza PR 8 virus; total dose .000005 μg): 4 | No. animals surviving when 100% (or given fraction) of controls are dead (Influenza PR 8 virus; total dose .000005 μg, hydrate): 4 | Survivors (Influenza PR 8 virus; total dose .0005 μg, hydrate): 1 | No. animals surviving when 100% (or given fraction) of controls are dead (Influenza PR 8 virus; total dose .5 μg): 1 | Survivors (Influenza PR 8 virus; total dose .5 μg): 1 | No. animals surviving after 6-10 days (Influenza PR 8 virus; total dose .5 μg, hydrate): 1 | No. animals surviving after 5-9 days ([1]; total dose 5 μg): 6 | Survivors ([1]; total dose 5 μg, hydrate): 3 | No. animals surviving after 5-9 days ([1]; total dose 50 μg, hydrate): 7 and 4 | Survivors ([1]; total dose 500 μg): 0 | No. animals surviving after 5-9 days ([1]; total dose 500 μg, hydrate): 6 and 3 | No. animals surviving after 5-9 days ([1]; total dose .00005 μg): 1 | Survivors ([1]; total dose .00005 μg): 0 | No. animals surviving after 5-9 days ([1]; total dose .0005 μg, hydrate): 5 and 7 | No. animals surviving after 5-9 days ([1]; total dose .005 μg, hydrate): 3 and 4 | No. animals surviving after 5-9 days ([1]; total dose .05 μg, hydrate): 4 and 6 | No. animals surviving after 5-9 days ([1]; total dose .5 μg, hydrate): 7 and 5 | No. animals surviving after 5-9 days ([2]; total dose 5 μg): 4 | Survivors ([2]; total dose 5 μg): 0 | No. animals surviving after 5-9 days ([2]; total dose 50 μg): 4 | Survivors ([2]; total dose 50 μg): 0 | No. animals surviving after 5-9 days ([2]; total dose 500 μg): 5 | Survivors ([2]; total dose 500 μg): 0 | No. animals surviving after 5-9 days ([2]; total dose .00005 μg): 6 | Survivors ([2]; total dose .00005 μg): 0 | No. animals surviving after 5-9 days ([2]; total dose .0005 μg): 6 | Survivors ([2]; total dose .0005 μg): 0 | No. animals surviving after 5-9 days ([2]; total dose .005 μg): 3 | Survivors ([2]; total dose .005 μg): 0 | No. animals surviving after 5-9 days ([2]; total dose .05 μg): 3 | Survivors ([2]; total dose .05 μg): 1 | No. animals surviving after 5-9 days ([2]; total dose .5 μg): 6 | Survivors ([2]; total dose .5 μg): 0

NNC(N)=O [semicarbazide, hydrochloride]
No. animals surviving after 6-9 days (Herpes virus; total dose 5 μg, hydrochloride): 5 | activity in words (viral infections): effective | Statistical Significance of Tail Lesions (Vaccinia IHD virus; 10 ng, day 6): < .01 | Statistical Significance of Tail Lesions (Vaccinia IHD virus; 10 ng, day 11): < .05 | Statistical Significance of Tail Lesions (Vaccinia IHD virus; 10 ng, day 12): < .05 | Statistical Significance of Tail Lesions (Vaccinia IHD virus; 10 ng, day 17): < .05 | Statistical Significance of Tail Lesions (Vaccinia IHD virus; 1 μg, day 6): < .01 | Statistical Significance of Tail Lesions (Vaccinia IHD virus; 1 μg, day 8): < .01 | Statistical Significance of Tail Lesions (Vaccinia IHD virus; 1 μg, day 10): < .01 | Statistical Significance of Tail Lesions (Vaccinia IHD virus; 1 μg, day 11): < .01 | Statistical Significance of Tail Lesions (Vaccinia IHD virus; 1 μg, day 12): < .01 | Statistical Significance of Tail Lesions (Vaccinia IHD virus; 1 μg, day 14): < .01 | Statistical Significance of Tail Lesions (Vaccinia IHD virus; 1 μg, day 17): < .01 | Statistical Significance of Tail Lesions (Vaccinia IHD virus; 1 μg, day 21): < .05 | Statistical Significance of Tail Lesions (Vaccinia IHD virus; 10 [μg], day 7): < .01 | Statistical Significance of Tail Lesions (Vaccinia IHD virus; 10 [μg], day 10): < .05 | Statistical Significance of Tail Lesions (Vaccinia IHD virus; 10 [μg], day 11): < .01 | Statistical Significance of Tail Lesions (Vaccinia IHD virus; 10 [μg], day 12): < .01 | Statistical Significance of Tail Lesions (Vaccinia IHD virus; 10 [μg], day 14): < .01 | Statistical Significance of Tail Lesions (Vaccinia IHD virus; 10 [μg], day 17): < .01 | Statistical Significance of Tail Lesions (Vaccinia IHD virus; 10 [μg], day 21): < .05 | Statistical Significance of Tail Lesions (Vaccinia IHD virus; 100 [ng], day 7): < .05 | Statistical Significance of Tail Lesions (Vaccinia IHD virus; 100 [ng], day 11): < .05 | Statistical Significance of Tail Lesions (Vaccinia IHD virus; 100 [ng], day 12): < .05 | Statistical Significance of Tail Lesions (Vaccinia IHD virus; 100 [ng], day 14): < .05 | Statistical Significance of Tail Lesions (Vaccinia IHD virus; 100 [ng], day 17): < .01 | Statistical Significance of Tail Lesions (Vaccinia IHD virus; 100 [ng], day 21): < .01 | No. animals surviving after 6 days (Neurovaccinia virus; total dose .0075 μg): 1/2 | Survivors (Neurovaccinia virus; total dose .75 μg): 0

CCC(C)=NNC(N)=S [thiosemicarbazone]
effect on pox formation (Vaccinia virus): very striking effects of the drug on the pox formation; also recorded: highly significant diminution of pox formation | instances of statistically significant geometric mean survival time (Columbia SK Polio virus): two

NNC(=O)c1ccncc1 [Isoniazid, isoniazid, reference compound]
No. animals surviving after 6-9 days (Herpes virus; total dose .0000005 μg): 4 | No. animals surviving when 100% (or given fraction) of controls are dead (Herpes virus; total dose .0000005 μg): 1 | Survivors (Herpes virus; total dose .0000005 μg): 1 | No. animals surviving when 100% (or given fraction) of controls are dead (Herpes virus; total dose .005 μg): 1 | No. animals surviving after 6-9 days (Herpes virus; total dose .05 μg): 4 | No. animals surviving when 100% (or given fraction) of controls are dead (Herpes virus; total dose .05 μg): 1 | Survivors (Herpes virus; total dose .05 μg): 1 | activity in words (viral infections): active | maximum protective effect, treated animals survived (viral infections): 30% | No. animals surviving after 6-10 days (Influenza PR 8 virus; total dose 5 μg): 5 | No. animals surviving after 6-10 days (Influenza PR 8 virus; total dose .0000005 μg): 1 | No. animals surviving when 100% (or given fraction) of controls are dead (Influenza PR 8 virus; total dose .0000005 μg): 0 | Survivors (Influenza PR 8 virus; total dose .0000005 μg): 0 | No. animals surviving when 100% (or given fraction) of controls are dead (Influenza PR 8 virus; total dose .000005 μg): 1 | Survivors (Influenza PR 8 virus; total dose .000005 μg): 0 | No. animals surviving after 6-10 days (Influenza PR 8 virus; total dose .00005 μg): 0 | No. animals surviving when 100% (or given fraction) of controls are dead (Influenza PR 8 virus; total dose .00005 μg): 0 | Survivors (Influenza PR 8 virus; total dose .00005 μg): 0 | No. animals surviving after 6-10 days (Influenza PR 8 virus; total dose .0005 μg): 0 | No. animals surviving when 100% (or given fraction) of controls are dead (Influenza PR 8 virus; total dose .0005 μg): 0 | Survivors (Influenza PR 8 virus; total dose .0005 μg): 0 | No. animals surviving after 6-10 days (Influenza PR 8 virus; total dose .005 μg): 1 | No. animals surviving when 100% (or given fraction) of controls are dead (Influenza PR 8 virus; total dose .005 μg): 1 | Survivors (Influenza PR 8 virus; total dose .005 μg): 1 | No. animals surviving when 100% (or given fraction) of controls are dead (Influenza PR 8 virus; total dose .05 μg): 0 | Survivors (Influenza PR 8 virus; total dose .05 μg): 1 | No. animals surviving when 100% (or given fraction) of controls are dead (Influenza PR 8 virus; total dose .5 μg): 1 | Survivors (Influenza PR 8 virus; total dose .5 μg): 1 | No. animals surviving after 5 days (Table 61: 11 days) ([3]; total dose .000005 μg (5 pg)): 3 | No. animals surviving when 100% (Table 61: 16/20) of controls are dead ([3]; total dose .000005 μg (5 pg)): 0 | Survivors ([3]; total dose .000005 μg (5 pg)): 0 | No. animals surviving after 5 days (Table 61: 11 days) ([3]; total dose .00005 μg (50 pg)): 2 | No. animals surviving when 100% (Table 61: 16/20) of controls are dead ([3]; total dose .00005 μg (50 pg)): 1 | Survivors ([3]; total dose .00005 μg (50 pg)): 0 | No. animals surviving after 5 days (Table 61: 11 days) ([3]; total dose .0005 μg (500 pg)): 3 | No. animals surviving when 100% (Table 61: 16/20) of controls are dead ([3]; total dose .0005 μg (500 pg)): 2 | Survivors ([3]; total dose .0005 μg (500 pg)): 0 | No. animals surviving after 5 days (Table 61: 11 days) ([3]; total dose .005 μg (5 ng)): 5 | No. animals surviving when 100% (Table 61: 16/20) of controls are dead ([3]; total dose .005 μg (5 ng)): 1 | Survivors ([3]; total dose .005 μg (5 ng)): 0 | No. animals surviving after 5 days (Table 61: 11 days) ([3]; total dose .05 μg (50 ng)): 3 | No. animals surviving when 100% (Table 61: 16/20) of controls are dead ([3]; total dose .05 μg (50 ng)): 1 | Survivors ([3]; total dose .05 μg (50 ng)): 0 | No. animals surviving after 5 days (Table 61: 11 days) ([3]; total dose .5 μg (500 ng)): 3 | No. animals surviving when 100% (Table 61: 16/20) of controls are dead ([3]; total dose .5 μg (500 ng)): 0 | Survivors ([3]; total dose .5 μg (500 ng)): 0

CN1C(=O)/C(=N\NC(N)=S)c2ccccc21 [Methisazone, 1-methylindole-2,3-dione, 3-thiosemicarbazone, reference compound]
No. animals surviving after 6-9 days (Herpes virus; total dose .0000005 μg): 4 and 3 | No. animals surviving after 6-9 days (Herpes virus; total dose .05 μg): 1 | No. animals surviving when 100% (or given fraction) of controls are dead (Herpes virus; total dose .05 μg): 0 | Survivors (Herpes virus; total dose .05 μg): 0 | activity in words (viral infections): active against pox virus infections of mice; also recorded: activity | activity in words ([4]; mouse, in vivo): active | No. animals surviving when 18/20 of controls are dead ([4]; total dose 6 ng): 4 | Survivors ([4]; total dose 6 ng): 2 | No. animals surviving when 18/20 of controls are dead ([4]; total dose 60 ng): 4 | Survivors ([4]; total dose 60 ng): 2 | No. animals surviving when 18/20 of controls are dead ([4]; total dose 600 ng): 2 | Survivors ([4]; total dose 600 ng): 2 | No. animals surviving when 18/20 of controls are dead ([4]; total dose 6 μg): 4 | Survivors ([4]; total dose 6 μg): 1 | No. animals surviving after 5-9 days ([2]; total dose 5 μg): 4 | Survivors ([2]; total dose 5 μg): 0 | No. animals surviving after 5-9 days ([2]; total dose 50 μg): 3 | Survivors ([2]; total dose 50 μg): 0 | No. animals surviving after 5-9 days ([2]; total dose .00005 μg): 6 | Survivors ([2]; total dose .00005 μg): 0 | No. animals surviving after 5-9 days ([2]; total dose .0005 μg): 5 | Survivors ([2]; total dose .0005 μg): 0 | No. animals surviving after 5-9 days ([2]; total dose .005 μg): 5 | Survivors ([2]; total dose .005 μg): 0 | No. animals surviving after 5-9 days ([2]; total dose .05 μg): 4 | Survivors ([2]; total dose .05 μg): 0 | No. animals surviving after 5-9 days ([2]; total dose .5 μg): 6 | Survivors ([2]; total dose .5 μg): 0
